Source: US20020183725A1, “Masking Agent” (priority 2001, published 2002)

Key:
[1] = Light absorption study of masking solutions with laser radiation (Beer's law, transmission vs. concentration); assay type: physicochemical; conditions: 213 nm laser wavelength; reciprocal of absorption coefficient
Experimental: Light absorbent studies were carried out using 213 nm radiation produced as the fifth harmonic wavelength of the fundamental 1064 nm wavelength of an Nd:YAG laser, with a pulse duration of 6 ns and repetition rate of 20 Hz. The pulse energy of the laser was monitored using an energy detector and a storage oscilloscope. The energy of the laser was obtained from the amplitude of the voltage signal delivered from the detector.
Beer's Law states that if light is passed through solution, energy is attenuated according to the formula:
Where: αM is the molar absorption coefficient in M^−1 cm^−1
C is the concentration in moles per liter
Ef and Ei are the final and initial pulse energies respectively.
In order to determine the amount of light absorbed (A) by the solution the molar absorption co-efficient is found from the gradient of the log-linear plot of Beer's law.
The absorption coefficient (α cm^−1) can then be calculated by multiplying the molar absorption coefficient by the concentration. Once the absorption coefficient is obtained, the penetration depth can be calculated from the reciprocal of this value.
Readings were taken for BSS maintaining the same dilutions. […] Five random readings were taken for each dilution and the mean calculated, in order to reduce the error from inter-pulse variations. […]

[2] = Fluorescence under the incident laser beam; assay type: physicochemical; conditions: laser beam incident on it
Excerpt: This would be a useful property in PTK.

## CC1COc2c(N3CCN(C)CC3)c(F)cc3c(=O)c(C(=O)O)cn1c23 (centres unmarked) [Ofloxacin, 9-fluoro-2,3-dihydro-3-methyl-10-(4-methyl-1-piperazinyl)-7-oxo-7H-pyrido[1,2,3-de][1,4]benzoxazine-6-carboxylic acid]
[1]
  Penetration Depth: 50.3 μm
[2]
  Fluorescence when the laser beam is incident: fluoresces
